Results reported in ChEMBL document CHEMBL3232861, “Metabolites of antroquinonol found in rat urine following oral administration” (J Nat Prod, 2014).

Experiments:
Assay type in all cases: ADME, organism-based
Parameters in all cases: dose 200 mg/kg, route oral
Conditions in all cases: in vivo
[1] = Drug excretion in Wistar rat urine treated with antroquinonol at 200 mg/kg, po administered via gavage measured after 24 hrs by HPLC-SPE-TT-NMR analysis
[2] = Drug excretion in Wistar rat urine assessed as (E)-6-((1R,2R,6R)-2-Hydroxy-3,4-dimethoxy-6-methyl-5-oxocyclo-hex-3-enyl)-4-methylhex-3-enoic acid level at 200 mg/kg, po administered via gavage measured after 24 hrs by HPLC-SPE-TT-NMR analysis
[3] = Drug excretion in Wistar rat urine assessed as (E)-6-((1R,2R,6R)-2-Hydroxy-3,4-dimethoxy-6-methyl-5-oxocyclo-hex-3-enyl)-4-methylhex-4-enoic acid level at 200 mg/kg, po administered via gavage measured after 24 hrs by HPLC-SPE-TT-NMR analysis
[4] = Drug excretion in Wistar rat urine assessed as (E)-6-((1R,2R ,6R)-2,5-Dihy droxy-4-methoxy-6-methyl-3-oxocyclo-hex-4-enyl)-4-methylhex-3-enoic acid level at 200 mg/kg, po administered via gavage measured after 24 hrs by HPLC-SPE-TT-NMR analysis
[5] = Drug excretion in Wistar rat urine assessed as (E)-6-((1R,2R ,6R)-2,5-Dihy droxy-4-methoxy-6-methyl-3-oxocyclo-hex-4-enyl)-4-methylhex-4-enoic acid level at 200 mg/kg, po administered via gavage measured after 24 hrs by HPLC-SPE-TT-NMR analysis

Drug excretion [1]	SMILES	other results
metabolite_detected	COC1=C(OC)[C@H](O)[C@H](C/C=C(\C)CCC(=O)O)[C@@H](C)C1=O	
metabolite_detected	COC1=C(OC)[C@H](O)[C@H](CC/C(C)=C/CC(=O)O)[C@@H](C)C1=O	
metabolite_detected	COC1=C(O)[C@H](C)[C@@H](CC/C(C)=C/CC(=O)O)[C@@H](O)C1=O	
metabolite_detected	COC1=C(O)[C@H](C)[C@@H](C/C=C(\C)CCC(=O)O)[C@@H](O)C1=O	
	COC1=C(OC)[C@H](O)[C@H](C/C=C(\C)CC/C=C(\C)CCC=C(C)C)[C@@H](C)C1=O [ANTROQUINONOL]	Drug excretion [2]: metabolite_detected; Drug excretion [3]: metabolite_detected; Drug excretion [4]: metabolite_detected; Drug excretion [5]: metabolite_detected
